Reference: PubChem BioAssay (NCI)
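Each compound was tested at five concentrations against cells in 96-well plates for 48 hours. TGI marks complete inhibition of growth.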

How the values were obtained:
Test in all cases: NCI anticancer screen, dose series, 48 h
MDA-MB-435 = tested on: MDA-MB-435
SK-OV-3 ovarian = tested on: SK-OV-3 ovarian
UACC-257 melanoma = tested on: UACC-257 melanoma
OVCAR-8 ovarian = tested on: OVCAR-8 ovarian
SK-MEL-28 melanoma = tested on: SK-MEL-28 melanoma
K-562 leukemia = tested on: K-562 leukemia
SF-539 CNS = tested on: SF-539 CNS
A549 NSCLC = tested on: A549 NSCLC
BT-549 breast = tested on: BT-549 breast
HCT-15 colon = tested on: HCT-15 colon
OVCAR-4 ovarian = tested on: OVCAR-4 ovarian
MCF7 breast = tested on: MCF7 breast
HOP-92 NSCLC = tested on: HOP-92 NSCLC
UO-31 renal = tested on: UO-31 renal
SR leukemia = tested on: SR leukemia
PC-3 prostate = tested on: PC-3 prostate
NCI-H522 lung = tested on: NCI-H522 lung
HL-60(TB) leukemia = tested on: HL-60(TB) leukemia
RXF 393 renal = tested on: RXF 393 renal
IGROV1 ovarian = tested on: IGROV1 ovarian
SNB-19 CNS = tested on: SNB-19 CNS
HOP-62 NSCLC = tested on: HOP-62 NSCLC
UACC-62 melanoma = tested on: UACC-62 melanoma
ACHN renal = tested on: ACHN renal
NCI-H460 lung = tested on: NCI-H460 lung
NCI-H226 lung = tested on: NCI-H226 lung
HT29 colon = tested on: HT29 colon
CCRF-CEM leukemia = tested on: CCRF-CEM leukemia
SK-MEL-5 melanoma = tested on: SK-MEL-5 melanoma
HS 578T breast = tested on: HS 578T breast
SF-295 CNS = tested on: SF-295 CNS
HCC-2998 colon = tested on: HCC-2998 colon
U251 CNS = tested on: U251 CNS
SW-620 colon = tested on: SW-620 colon
RPMI-8226 leukemia = tested on: RPMI-8226 leukemia
SK-MEL-2 melanoma = tested on: SK-MEL-2 melanoma
SNB-75 CNS = tested on: SNB-75 CNS
M14 melanoma = tested on: M14 melanoma
TK-10 renal = tested on: TK-10 renal
MOLT-4 leukemia = tested on: MOLT-4 leukemia
OVCAR-5 ovarian = tested on: OVCAR-5 ovarian
OVCAR-3 ovarian = tested on: OVCAR-3 ovarian
NCI-H23 lung = tested on: NCI-H23 lung
KM12 colon = tested on: KM12 colon
SF-268 CNS = tested on: SF-268 CNS
NCI/ADR-RES ovarian = tested on: NCI/ADR-RES ovarian
EKVX NSCLC = tested on: EKVX NSCLC
786-0 renal = tested on: 786-0 renal
LOX IMVI melanoma = tested on: LOX IMVI melanoma
SN12C renal = tested on: SN12C renal
HCT-116 colon = tested on: HCT-116 colon
MDA-MB-231 breast = tested on: MDA-MB-231 breast
COLO 205 colon = tested on: COLO 205 colon
DU-145 prostate = tested on: DU-145 prostate
CAKI-1 renal = tested on: CAKI-1 renal
T-47D breast = tested on: T-47D breast
A498 renal = tested on: A498 renal

Measured: TGI

CCOc1ccc(/C=C2\N=C(c3ccccc3)OC2=O)cc1
not listed: 786-0 renal | LOX IMVI melanoma | SN12C renal | HCT-116 colon | MDA-MB-231 breast | COLO 205 colon | DU-145 prostate | CAKI-1 renal | T-47D breast | A498 renal
> 100 µM: all other assays above

CCCCCCCCCCCCCCCCOCC(COP(=O)(O)OCC1OC(n2cc(CC)c(=O)[nH]c2=O)CC1O)OC(=O)CCCCCCCCCCCCCCC (stereo unspecified)
not listed: BT-549 breast | NCI-H460 lung | SK-MEL-5 melanoma
> 100 µM: all other assays above
